Assay results: EP0091995B1, “New compound having antiinflammatory, analgesic and mucoregulating activity, process for its production and relative pharmaceutical compositions” (AUSONIA FARMACEUTICI S.r.l., priority 1982, dated 1983)

Experiments:
[1] = Acute toxicity (method of Litchfield and Wilcoxon); settings: in vivo, oral, os
Description: The acute toxicity has been determined in Swiss mouse and in Wistar rat for different administration routes, according to the method of Litchfield J.T. and Wilcoxon [J. Pharm. Exp. Therap. 96, 99-113, (1949)].
The results obtained are reported in the following Table I; from the same it can be pointed out how AFP is endowed with a very low acute toxicity.

male Wistar rat = assay: Bronchosecretogogue activity (Mawatari technique); type: in vivo; settings: 500 mg/kg/os; FlNa = Sodium fluoresceine
Description: The bronchosecretogogue activity has been determined in male Wistar rat by per os administration according to the method of Mawatari [Mawatari H., Kagoshima Daigaku Igaku-Zasshi, 27, 561 (1976)], comparing AFP-695 with carboxymethylcysteine and sobrerol at the doses hereinafter stated.

male rabbit = assay: Mucosecretolytic activity (technique of Giraldez et al); type: in vivo; settings: 500 mg/kg/os
Description: The mucosecretolytic activity has been studied in the male rabbit according to the technique of Giraldez, Grass and Bruseghini(Abstr. Comp. Int. Pharm. N. 1086-Paris 1978), by administration by the oral route, comparing AFP-695 with carboxymethylcysteine and sobrerol at the dose hereinafter stated.

Sprague-Dawley rats = assay: Antiinflammatory activity, pleuritis by carrageenin (method of Vinegar); type: in vivo; settings: oral route
Rats = assay: Gastrolesive action (gastric mucosa examination); type: in vivo; settings: rats fasting 18 hours; 5 hours 30 minutes after treatment; Ibuprofen 100 mg/kg/os, AFP-695 150 mg/kg/os
Method: 5 Hours and 30 minutes after treatments, the animals have been sacrificed and the stomach has been withdrawn for gastric mucosa examination.

mouse = assay: Analgesic activity, writhings by phenylquinone; type: in vivo; settings: 100 mg/kg os
Method: The test of writhings by phenylquinone in the mouse has been used.
The two drugs have been administered per os 30 minutes […] intraperitoneal injection of phenylquinone.

[2] = Pharmacokinetics, plasma and lung levels by gas chromatography; type: in vivo, rats; settings: 100 mg/kg per os; at 30 minutes, and in some instance also at 1 hour
Method: At the moment of treatment rats were fasting since 18 hours. Rats have been then sacrificed in groups of 4 at different times: 30 min., 1 h, 2 h, 4 h, 6 h.
The concentration both of unchanged products and of their metabolites have been measured by gas chromatography in plasma and in the lung.

[3] = Solubility of the product of the Example; type: physicochemical
Description: Its structure is confirmed by analytical and spectroscopical data. • Elemental analysis: • for C23H3403(M.W. = 358.49) • calcd. % C = 77.05; H = 9.56 • found % C = 76.88; H = 9.60. • I.R. Spectrum • (liquid film; absorption band values are expressed in cm^-1): • stretch 0-H 3400-3250 • stretch C=O 1735 • stretch C-0 1205 • H^1 NMR Spectrum • (recorded in CDCI3, internal reference TMS; values of the chemical shifts are expressed in δ): • 0.65-1.2(m, 12H, -CH(CH3)2, C(CH3)2); • 1.3-2 (m, 12H, CH2―CH―CH2, CH2-CH, CH3-CH, OH mobile); • 2.3 (d, 3H, =C-CH3); • 3.5 (q, 1 H, CH3-CH-CO); • 4.7-5 (m, 1H,―CH―O―CO); • 5.3-5.6 (m, 1H, =CH-CH2); • 6.6-7 (m, 4H, aromatics).

rabbits = assay: Anti-cough activity, cough induced by citric acid aerosol; settings: mean number of cough strokes; endoperitoneal route; Codeine 12.5 mg/kg, AFP-695 150 mg/kg
rat = assay: Antiinflammatory activity, subplantar edema by carrageenin; settings: Ibuprofen 100 mg/kg os, AFP-695 150 mg/kg os
Method: Tests have been performed on the rat, employing the test of the subplantar edema induced by carrageenin. […] After edema induction, the animals of each group have been controlled, every 60 minutes for 5 consecutive hours, in order to point out the evolution of the inflammatory process.

## CC1=CCC(C(C)(C)O)CC1OC(=O)C(C)c1ccc(CC(C)C)cc1 (stereo not drawn) [AFP-695, 2-methyl-5-(1-hydroxy-1-methylethyl)-cyclohex-2-enyl 2-(4-isobutylphenyl)propionate]
[1]; Swiss, mouse
  LD50: 1800 mg/kg
[1]; Wistar, rat
  LD50: 2200 mg/kg
Male Wistar rat
  % Increase of FlNa(*) in comparison with controls: 51.6%
Male rabbit
  % Increase of secretion in comparison with controls: 35.7%
Sprague-Dawley rats; 24th hour, equiponderant doses
  decrease of leucocytes number: 60.89%
  decrease of the exudate volume, in comparison with control: 51.02%
Sprague-Dawley rats; fifth hour after treatment
  decrease of the number of leucocytes: 70.91%
Sprague-Dawley rats; fifth hour after treatment, 30 minutes before intrapleural injection
  decrease of the exudate: 41.84%
Rats
  Mean ulcers size: 0.9 ± 0.3 mm
mouse
  % Inhibition in comparison with controls: 71.09%
  Mean No. of writhings: 3.7 ± 1.2
  No. animals with writhings: 3/10
[2]
  unchanged AFP-695 in plasma: has been found in plasma
[3]; common organic solvents
  solubility in the common organic solvents: easily soluble in the common organic solvents
[3]; water
  solubility in water: substantially insoluble in water
rabbits
  % Inhibition in comparison with controls: 78.1%
rat
  AREA % Inhibition in comparison with controls: 42.8%
rat; area of limb volume over 0-5 hours
  AREA Absolute value: 156.2
rat; hour 0, 30 minutes before carrageenin
  MEAN LIMB VOLUME AT DIFFERENT HOURS AFTER TREATMENT 0: 22.8
rat; hour 1
  MEAN LIMB VOLUME AT DIFFERENT HOURS AFTER TREATMENT 1: 27.2
rat; hour 2
  MEAN LIMB VOLUME AT DIFFERENT HOURS AFTER TREATMENT 2: 29.6
rat; hour 3
  MEAN LIMB VOLUME AT DIFFERENT HOURS AFTER TREATMENT 3: 31.4
rat; hour 4
  MEAN LIMB VOLUME AT DIFFERENT HOURS AFTER TREATMENT 4: 32.6
rat; hour 5
  MEAN LIMB VOLUME AT DIFFERENT HOURS AFTER TREATMENT 5: 34.9

## COc1ccc2c3c1O[C@H]1[C@@H](O)C=C[C@H]4[C@@H](C2)N(C)CC[C@@]341 [Codeine, codeine, reference compound]
rabbits
  % Inhibition in comparison with controls: 76.7%

## CC(C)Cc1ccc(C(C)C(=O)O)cc1 (stereo not drawn) [Ibuprofen, 2-(4-isobutylphenyl)-propionic acid, reference compound]
Sprague-Dawley rats; 24th hour, equiponderant doses
  decrease of leucocytes number: 5.58%
Rats
  Mean ulcers size: 9.6 ± 1.8 mm
mouse
  % Inhibition in comparison with controls: 89.84%
  Mean No. of writhings: 1.3 ± 0.5
  No. animals with writhings: 1/10
rat
  AREA % Inhibition in comparison with controls: 44.2%

## CC1=CCC(C(C)(C)O)CC1O (stereo not drawn) [Sobrerol, 2-methyl-5-(1-hydroxy-1-methyl-ethyl)-2-cyclohexen-1-ol, reference compound]
Male Wistar rat
  % Increase of FlNa(*) in comparison with controls: 33.4%
Male rabbit
  % Increase of secretion in comparison with controls: 36.8%
